Test results taken from the Kinase Knowledgebase extract (Sharma et al. 2016).

How the values were obtained:
Assay in all cases: Enzyme Assay
PIK3CD (Human) = PIK3CD (Human) (UniProt O00329)
PIK3CA (human) = PIK3CA (human) (UniProt P42336)
PIK3CG (human) = PIK3CG (human) (UniProt P48736)
PIK3CB (Human) = PIK3CB (Human) (UniProt P42338)
Chain of PIK3CB (Human) (P42338 whole entry, looked up): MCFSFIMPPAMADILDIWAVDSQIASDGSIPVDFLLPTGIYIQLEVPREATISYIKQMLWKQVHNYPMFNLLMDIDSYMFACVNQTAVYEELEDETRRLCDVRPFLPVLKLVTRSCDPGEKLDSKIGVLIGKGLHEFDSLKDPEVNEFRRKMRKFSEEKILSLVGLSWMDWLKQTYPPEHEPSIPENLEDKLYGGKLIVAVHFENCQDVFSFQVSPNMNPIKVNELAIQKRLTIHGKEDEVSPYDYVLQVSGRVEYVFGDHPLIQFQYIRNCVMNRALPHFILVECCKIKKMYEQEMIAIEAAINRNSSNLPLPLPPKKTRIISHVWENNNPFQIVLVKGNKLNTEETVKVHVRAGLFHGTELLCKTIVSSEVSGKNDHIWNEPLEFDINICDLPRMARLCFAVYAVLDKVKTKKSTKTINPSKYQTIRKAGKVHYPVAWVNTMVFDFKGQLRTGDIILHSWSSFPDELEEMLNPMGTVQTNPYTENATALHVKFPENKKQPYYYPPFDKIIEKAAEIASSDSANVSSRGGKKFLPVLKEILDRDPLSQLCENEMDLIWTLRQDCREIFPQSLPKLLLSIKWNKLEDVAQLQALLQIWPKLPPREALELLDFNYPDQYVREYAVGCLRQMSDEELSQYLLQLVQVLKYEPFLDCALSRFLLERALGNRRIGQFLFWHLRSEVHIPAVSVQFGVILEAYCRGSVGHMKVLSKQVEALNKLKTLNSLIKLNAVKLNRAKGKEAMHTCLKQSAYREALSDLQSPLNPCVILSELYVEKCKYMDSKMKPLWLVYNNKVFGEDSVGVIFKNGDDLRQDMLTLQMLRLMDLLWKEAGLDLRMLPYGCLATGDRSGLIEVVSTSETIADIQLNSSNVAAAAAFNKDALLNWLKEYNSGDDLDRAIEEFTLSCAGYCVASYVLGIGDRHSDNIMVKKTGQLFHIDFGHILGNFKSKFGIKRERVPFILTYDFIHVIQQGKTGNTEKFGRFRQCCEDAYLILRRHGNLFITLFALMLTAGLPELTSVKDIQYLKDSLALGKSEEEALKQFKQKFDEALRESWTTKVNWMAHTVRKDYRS

Chain of PIK3CA (human) (P42336 whole entry, looked up): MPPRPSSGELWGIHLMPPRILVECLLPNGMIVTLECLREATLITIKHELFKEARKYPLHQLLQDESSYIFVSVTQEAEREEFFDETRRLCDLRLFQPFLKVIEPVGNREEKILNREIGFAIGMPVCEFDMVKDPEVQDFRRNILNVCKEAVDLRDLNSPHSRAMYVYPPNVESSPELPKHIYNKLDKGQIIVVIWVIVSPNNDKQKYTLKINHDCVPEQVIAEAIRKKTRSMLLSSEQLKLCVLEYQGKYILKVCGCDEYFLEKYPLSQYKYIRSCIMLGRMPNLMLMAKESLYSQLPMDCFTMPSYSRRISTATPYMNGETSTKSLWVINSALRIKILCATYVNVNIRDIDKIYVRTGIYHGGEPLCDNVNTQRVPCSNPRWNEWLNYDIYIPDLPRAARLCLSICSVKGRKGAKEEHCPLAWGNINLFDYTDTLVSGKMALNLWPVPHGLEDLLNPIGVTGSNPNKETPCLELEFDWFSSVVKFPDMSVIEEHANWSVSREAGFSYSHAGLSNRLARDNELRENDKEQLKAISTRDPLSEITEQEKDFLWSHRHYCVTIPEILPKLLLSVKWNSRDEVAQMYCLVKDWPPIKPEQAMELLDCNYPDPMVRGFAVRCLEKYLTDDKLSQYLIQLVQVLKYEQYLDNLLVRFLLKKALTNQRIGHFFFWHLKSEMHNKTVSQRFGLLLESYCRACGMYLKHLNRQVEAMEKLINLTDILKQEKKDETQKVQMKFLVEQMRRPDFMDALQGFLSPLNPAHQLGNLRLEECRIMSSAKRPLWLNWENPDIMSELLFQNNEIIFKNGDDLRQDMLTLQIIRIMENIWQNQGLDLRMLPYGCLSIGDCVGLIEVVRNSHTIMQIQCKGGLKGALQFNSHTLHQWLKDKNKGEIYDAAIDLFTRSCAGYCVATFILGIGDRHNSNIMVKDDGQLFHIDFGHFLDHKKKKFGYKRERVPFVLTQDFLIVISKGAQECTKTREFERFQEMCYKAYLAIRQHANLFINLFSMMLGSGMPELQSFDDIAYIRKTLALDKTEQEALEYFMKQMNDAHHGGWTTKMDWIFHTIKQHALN
Chain of PIK3CG (human) (P48736 whole entry, looked up): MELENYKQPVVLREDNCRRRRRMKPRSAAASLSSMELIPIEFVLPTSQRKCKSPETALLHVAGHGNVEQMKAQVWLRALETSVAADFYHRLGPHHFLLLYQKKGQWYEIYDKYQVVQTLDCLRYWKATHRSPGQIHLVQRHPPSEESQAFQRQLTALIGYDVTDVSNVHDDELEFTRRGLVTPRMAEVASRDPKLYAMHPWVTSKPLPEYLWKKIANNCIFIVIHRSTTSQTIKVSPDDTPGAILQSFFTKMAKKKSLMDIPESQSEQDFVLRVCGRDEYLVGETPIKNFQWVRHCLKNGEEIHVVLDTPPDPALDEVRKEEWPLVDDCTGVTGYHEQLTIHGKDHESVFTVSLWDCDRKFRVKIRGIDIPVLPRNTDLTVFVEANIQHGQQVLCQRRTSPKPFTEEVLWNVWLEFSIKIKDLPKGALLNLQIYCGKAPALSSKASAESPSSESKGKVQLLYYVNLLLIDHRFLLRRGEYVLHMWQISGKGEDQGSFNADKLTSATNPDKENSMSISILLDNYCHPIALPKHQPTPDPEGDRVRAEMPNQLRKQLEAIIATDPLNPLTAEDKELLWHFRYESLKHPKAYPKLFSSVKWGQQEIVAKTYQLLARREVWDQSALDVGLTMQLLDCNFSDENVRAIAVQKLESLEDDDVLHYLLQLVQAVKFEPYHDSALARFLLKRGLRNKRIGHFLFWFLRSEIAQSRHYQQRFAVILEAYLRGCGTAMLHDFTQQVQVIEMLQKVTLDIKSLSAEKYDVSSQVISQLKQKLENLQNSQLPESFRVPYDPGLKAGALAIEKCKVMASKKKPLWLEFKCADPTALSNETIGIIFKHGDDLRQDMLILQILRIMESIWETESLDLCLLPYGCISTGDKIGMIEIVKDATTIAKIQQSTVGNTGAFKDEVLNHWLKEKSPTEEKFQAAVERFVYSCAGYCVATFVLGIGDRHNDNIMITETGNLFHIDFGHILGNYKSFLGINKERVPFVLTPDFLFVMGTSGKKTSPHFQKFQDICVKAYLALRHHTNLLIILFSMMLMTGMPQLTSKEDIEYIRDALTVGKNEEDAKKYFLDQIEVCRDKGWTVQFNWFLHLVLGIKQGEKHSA
Chain of PIK3CD (Human) (O00329 whole entry, looked up): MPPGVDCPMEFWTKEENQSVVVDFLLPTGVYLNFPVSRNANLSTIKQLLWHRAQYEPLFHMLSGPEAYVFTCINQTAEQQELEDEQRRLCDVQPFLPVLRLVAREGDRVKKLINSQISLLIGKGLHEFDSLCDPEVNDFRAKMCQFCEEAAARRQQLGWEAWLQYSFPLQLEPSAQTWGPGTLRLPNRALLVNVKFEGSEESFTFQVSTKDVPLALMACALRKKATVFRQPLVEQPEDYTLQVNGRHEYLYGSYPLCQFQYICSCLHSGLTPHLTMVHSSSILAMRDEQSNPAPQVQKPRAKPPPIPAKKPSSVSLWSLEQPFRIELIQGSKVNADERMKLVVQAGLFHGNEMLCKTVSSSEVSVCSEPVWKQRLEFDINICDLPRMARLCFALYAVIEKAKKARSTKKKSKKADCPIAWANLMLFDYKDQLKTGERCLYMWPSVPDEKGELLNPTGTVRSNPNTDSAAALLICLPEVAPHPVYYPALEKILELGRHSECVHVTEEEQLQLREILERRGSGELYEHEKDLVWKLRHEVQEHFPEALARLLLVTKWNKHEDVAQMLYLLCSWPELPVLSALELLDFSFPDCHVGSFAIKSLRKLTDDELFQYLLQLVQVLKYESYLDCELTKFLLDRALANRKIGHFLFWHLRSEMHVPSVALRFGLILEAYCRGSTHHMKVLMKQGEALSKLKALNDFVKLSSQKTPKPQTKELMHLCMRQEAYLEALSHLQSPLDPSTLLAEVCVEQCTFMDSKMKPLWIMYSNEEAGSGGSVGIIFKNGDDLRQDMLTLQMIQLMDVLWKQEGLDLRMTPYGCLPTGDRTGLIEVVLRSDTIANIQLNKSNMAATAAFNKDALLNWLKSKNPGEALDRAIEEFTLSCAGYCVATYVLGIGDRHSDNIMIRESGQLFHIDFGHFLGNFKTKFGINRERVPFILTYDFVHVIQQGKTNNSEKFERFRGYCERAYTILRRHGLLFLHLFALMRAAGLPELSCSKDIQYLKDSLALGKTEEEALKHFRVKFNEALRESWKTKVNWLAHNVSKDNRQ

IC50 (PIK3CD (Human))	IC50 (PIK3CA (human))	IC50 (PIK3CG (human))	IC50 (PIK3CB (Human))	Compound
< 100 nM	100 to 1000 nM	100 to 1000 nM	–	C[C@H](Nc1ncnc2scnc12)c1cc2cccc(-c3ccc(=O)n(C)c3)c2c(=O)n1-c1ccccc1
< 100 nM	100 to 1000 nM	< 100 nM	–	Cc1nn(C)cc1-c1cccc2cc([C@H](C)Nc3ncnc4scnc34)n(-c3ccccc3)c(=O)c12
< 100 nM	–	100 to 1000 nM	> 10 µM	Cc1ncc(-c2cccc3cc([C@H](C)Nc4ncnc5scnc45)n(-c4ccccc4)c(=O)c23)cn1
< 100 nM	–	< 100 nM	–	Cc1cc(-c2cccc3cc([C@H](C)Nc4ncnc5scnc45)n(-c4ccccc4)c(=O)c23)cnc1F
< 100 nM	–	< 100 nM	–	C[C@H](Nc1ncnc2scnc12)c1cc2cccc(-c3cccnc3)c2c(=O)n1-c1ccccc1
< 100 nM	–	< 100 nM	–	C[C@H](Nc1ncnc2scnc12)c1cc2cccc(-c3cn[nH]c3)c2c(=O)n1-c1ccccc1
< 100 nM	–	100 to 1000 nM	–	Cc1c(-c2cccc3cc([C@H](C)Nc4ncnc5scnc45)n(-c4ccccc4)c(=O)c23)cnn1C
< 100 nM	100 to 1000 nM	< 100 nM	–	C[C@H](Nc1ncnc2scnc12)c1cc2cccc(-c3ccc(N)nc3)c2c(=O)n1-c1ccccc1
< 100 nM	100 to 1000 nM	< 100 nM	–	Cc1cc(-c2cccc3cc([C@H](C)Nc4ncnc5scnc45)n(-c4ccccc4)c(=O)c23)ccn1
< 100 nM	–	< 100 nM	> 10 µM	C[C@H](Nc1ncnc2scnc12)c1cc2cccc(-c3cncc(F)c3)c2c(=O)n1-c1ccccc1
< 100 nM	–	< 100 nM	–	Cc1cc(-c2cccc3cc([C@H](C)Nc4ncnc5scnc45)n(-c4ccccc4)c(=O)c23)cnc1C
< 100 nM	–	< 100 nM	–	C[C@H](Nc1ncnc2scnc12)c1cc2cccc(-c3cnn(C)c3)c2c(=O)n1-c1cccc(F)c1
< 100 nM	–	< 100 nM	–	COc1ccc(-c2cccc3cc([C@H](C)Nc4ncnc5scnc45)n(-c4ccccc4)c(=O)c23)cn1
< 100 nM	–	< 100 nM	> 10 µM	C[C@H](Nc1ncnc2scnc12)c1cc2cccc(-c3ccnnc3)c2c(=O)n1-c1ccccc1
< 100 nM	100 to 1000 nM	< 100 nM	–	C[C@H](Nc1ncnc2scnc12)c1cc2cccc(-c3cnc(N)nc3)c2c(=O)n1-c1ccccc1
< 100 nM	–	100 to 1000 nM	> 10 µM	CC(C)Cn1cc(-c2cccc3cc([C@H](C)Nc4ncnc5scnc45)n(-c4ccccc4)c(=O)c23)cn1
< 100 nM	–	< 100 nM	> 10 µM	C[C@H](Nc1ncnc2scnc12)c1cc2cccc(-c3cnn(CCN4CCOCC4)c3)c2c(=O)n1-c1ccccc1
< 100 nM	100 to 1000 nM	< 100 nM	–	Cc1cncc(-c2cccc3cc([C@H](C)Nc4ncnc5scnc45)n(-c4ccccc4)c(=O)c23)c1
< 100 nM	–	< 100 nM	–	Cc1ccc(-c2cccc3cc([C@H](C)Nc4ncnc5scnc45)n(-c4ccccc4)c(=O)c23)cn1
< 100 nM	100 to 1000 nM	< 100 nM	–	C[C@H](Nc1ncnc2scnc12)c1cc2cccc(-c3ccoc3)c2c(=O)n1-c1ccccc1
< 100 nM	–	< 100 nM	–	CCn1cc(-c2cccc3cc([C@H](C)Nc4ncnc5scnc45)n(-c4ccccc4)c(=O)c23)cn1
< 100 nM	–	100 to 1000 nM	–	CCCn1cc(-c2cccc3cc([C@H](C)Nc4ncnc5scnc45)n(-c4ccccc4)c(=O)c23)cn1
< 100 nM	–	< 100 nM	–	C[C@H](Nc1ncnc2scnc12)c1cc2cccc(-c3cncnc3)c2c(=O)n1-c1ccccc1
< 100 nM	100 to 1000 nM	< 100 nM	–	C[C@H](Nc1ncnc2scnc12)c1cc2cccc(-c3ccncc3)c2c(=O)n1-c1ccccc1
< 100 nM	–	100 to 1000 nM	> 10 µM	CC(C)n1cc(-c2cccc3cc([C@H](C)Nc4ncnc5scnc45)n(-c4ccccc4)c(=O)c23)cn1

More lines, now with the values behind:

Compound	IC50 (PIK3CD (Human))	IC50 (PIK3CA (human))	IC50 (PIK3CG (human))	IC50 (PIK3CB (Human))
COc1ccc(-c2cccc3cc([C@H](C)Nc4ncnc5scnc45)n(-c4ccccc4)c(=O)c23)cc1	< 100 nM	–	< 100 nM	–
Cc1nsc2cc(C(C)Nc3ncnc4scnc34)n(-c3ccccc3)c(=O)c12 (stereo unspecified)	< 100 nM	> 10000 nM	–	–
Cc1sc2ncnc(N[C@@H](C)c3cc4cccc(Cl)c4c(=O)n3-c3ccccc3)c2c1C	< 100 nM	> 10000 nM	–	> 10 µM
COc1ncc(-c2cccc3cc([C@H](C)Nc4ncnc5scnc45)n(-c4ccccc4)c(=O)c23)cc1C	< 100 nM	–	< 100 nM	–
C[C@H](Nc1ncnc2scnc12)c1cc2cccc(/C=C/c3ccccc3)c2c(=O)n1-c1ccccc1	100 to 1000 nM	–	< 100 nM	–
C[C@H](Nc1ncnc2scnc12)c1cc2ccccc2c(=O)n1-c1ccccc1	< 100 nM	–	< 100 nM	–
COc1cc(-c2cccc3cc([C@H](C)Nc4ncnc5scnc45)n(-c4ccccc4)c(=O)c23)ccn1	< 100 nM	100 to 1000 nM	< 100 nM	–
Cc1ccnc2cc(C(C)Nc3ncnc4scnc34)n(-c3ccccc3)c(=O)c12 (stereo unspecified)	< 100 nM	> 10000 nM	< 100 nM	–
C[C@H](Nc1ncnc2scnc12)c1cc2cccc(Cl)c2c(=O)n1C	< 100 nM	–	< 100 nM	< 0.1 µM
C[C@H](Nc1ncnc2scnc12)c1cc2cccc(C=O)c2c(=O)n1-c1ccccc1	< 100 nM	–	< 100 nM	0.1 to 1 µM
COc1ncc(-c2cccc3cc([C@H](C)Nc4ccnc5scnc45)n(-c4ccccc4)c(=O)c23)cn1	< 100 nM	–	100 to 1000 nM	> 10 µM
C[C@H](Nc1ncnc2scnc12)c1cc2cccc(-c3cnc4c(c3)CCCO4)c2c(=O)n1-c1ccccc1	< 100 nM	100 to 1000 nM	< 100 nM	–
C[C@H](Nc1ccnc2scnc12)c1cc2cccc(Cl)c2c(=O)n1-c1cccc(F)c1	< 100 nM	–	< 100 nM	0.1 to 1 µM
C[C@H](Nc1ncnc2scnc12)c1cc2cccc(Cl)c2c(=O)n1-c1cccc(C(F)(F)F)c1	100 to 1000 nM	> 10000 nM	100 to 1000 nM	–
C[C@H](Nc1ncnc2scnc12)c1cc2scc(-c3cnn(C)c3)c2c(=O)n1-c1ccccc1	100 to 1000 nM	–	100 to 1000 nM	> 10 µM
COc1ncc(-c2cccc3cc([C@H](C)Nc4ncnc5scnc45)n(-c4cccc(F)c4)c(=O)c23)cn1	< 100 nM	–	100 to 1000 nM	> 10 µM
C[C@H](Nc1ncnc2scnc12)c1cc2cccc(-c3ccc(N(C)C)nc3)c2c(=O)n1-c1ccccc1	< 100 nM	–	< 100 nM	> 10 µM
COc1cnccc1-c1cccc2cc([C@H](C)Nc3ncnc4scnc34)n(-c3ccccc3)c(=O)c12	100 to 1000 nM	–	100 to 1000 nM	–
C[C@H](Nc1ncnc2scnc12)c1cc2cccc(-c3cccc(N(C)C)c3)c2c(=O)n1-c1ccccc1	< 100 nM	100 to 1000 nM	< 100 nM	–
COc1ncc(-c2cccc3cc([C@H](C)Nc4ncnc5scnc45)n(C4CC4)c(=O)c23)cn1	< 100 nM	–	100 to 1000 nM	–

Compound	IC50 (PIK3CD (Human))	IC50 (PIK3CA (human))	IC50 (PIK3CG (human))	IC50 (PIK3CB (Human))
COc1cccc(-c2cccc3cc([C@H](C)Nc4ncnc5scnc45)n(-c4ccccc4)c(=O)c23)c1	< 100 nM	100 to 1000 nM	< 100 nM	–
C[C@H](Nc1ccnc2scnc12)c1cc2cccc(-c3cnn(C)c3)c2c(=O)n1-c1ccccc1	< 100 nM	–	< 100 nM	–
C[C@H](Nc1ncnc2scnc12)c1cc2cccc(-c3cnc4c(c3)CCCC4)c2c(=O)n1-c1ccccc1	–	> 10000 nM	–	> 10 µM
C[C@H](Nc1ncnc2scc(-c3ccccc3)c12)c1cc2cccc(Cl)c2c(=O)n1-c1ccccc1	100 to 1000 nM	> 10000 nM	–	> 10 µM
C[C@H](Nc1nc(Cl)nc2scnc12)c1cc2cccc(-c3cnn(C)c3)c2c(=O)n1-c1ccccc1	< 100 nM	–	100 to 1000 nM	–
C[C@H](Nc1ncnc2scnc12)c1cc2cccc(-c3cnc4ccoc4c3)c2c(=O)n1-c1ccccc1	< 100 nM	100 to 1000 nM	< 100 nM	–
C[C@H](Nc1ncnc2scnc12)c1cc2cccc(C(=O)O)c2c(=O)n1-c1ccccc1	–	> 10000 nM	–	> 10 µM
C[C@H](Nc1ncnc2scnc12)c1cc2cccc(-c3cnc(OCc4ccccc4)nc3)c2c(=O)n1-c1ccccc1	< 100 nM	–	100 to 1000 nM	–
Cc1ncc(-c2cccc3cc([C@H](C)Nc4ncnc5scnc45)n(C4CC4)c(=O)c23)cn1	< 100 nM	–	100 to 1000 nM	–
C[C@H](Nc1ncnc2scnc12)c1cc2scc(Cl)c2c(=O)n1-c1ccccc1	< 100 nM	–	< 100 nM	< 0.1 µM
COc1ncc(-c2cccc3cc([C@H](C)Nc4ncnc5scnc45)n(-c4ccccc4)c(=O)c23)s1	< 100 nM	100 to 1000 nM	< 100 nM	–
C[C@H](Nc1ncnc2scnc12)c1cc2cccc(-c3ccnc(C(F)(F)F)c3)c2c(=O)n1-c1ccccc1	< 100 nM	–	100 to 1000 nM	–
C[C@H](Nc1ncnc2scnc12)c1cc2cccc(-c3ccc(F)c(F)c3)c2c(=O)n1-c1ccccc1	< 100 nM	–	< 100 nM	> 10 µM
CCCCc1cccc2cc([C@H](C)Nc3ncnc4scnc34)n(-c3ccccc3)c(=O)c12	< 100 nM	–	< 100 nM	–
C[C@H](Nc1ncnc2scnc12)c1cc2cccc(-c3cnn(C)c3)c2c(=O)n1C	100 to 1000 nM	–	–	–
COc1ccccc1-c1cccc2cc([C@H](C)Nc3ncnc4scnc34)n(-c3ccccc3)c(=O)c12	< 100 nM	–	100 to 1000 nM	–
Cc1nc2c(N[C@@H](C)c3cc4cccc(-c5cnn(C)c5)c4c(=O)n3-c3ccccc3)ncnc2s1	–	> 10000 nM	–	> 10 µM
Cc1cccc2cc([C@H](C)Nc3ncnc4scnc34)n(-c3cccc(F)c3)c(=O)c12	< 100 nM	–	< 100 nM	0.1 to 1 µM
COc1ncc(-c2cccc3cc([C@H](C)Nc4ncnc5scnc45)n(-c4ccccc4)c(=O)c23)cc1C(F)(F)F	< 100 nM	–	< 100 nM	–
